Here are results for seven molecules from publication PMC7915527, “Development of a Liquid Chromatography/Mass Spectrometry-Based Inhibition Assay for the Screening of Steroid 5-α Reductase in Human and Fish Cell Lines” (Molecules, 2021).

As usually defined, the IC50 is the concentration that inhibits the measured activity by half.

Data set [1] has as its system 5AR in RTG-2 cells. The data set can be described thus: Cell-based 5AR activity/inhibition assay in rainbow trout gonad cells (RTG-2). How it is done: (§1) For the calculation of KM for optimized assay conditions, ZFL and RTG-2 cells were treated with testosterone in increments of 0 to 50 µM. The DHT levels were measured (Figure 5a). Based on the calculated KM values, inhibition assays were conducted (Figure 5b).
(§2) HEK-293, LNCaP, DU-145, SW-13, and ZFL cell lines were obtained from the American Type Culture Collection (ATCC; Manassas, VA, USA) and cultured according to their instructions. The HEK-293 cells were cultured in a high-glucose DMEM that contained 10% FBS, 100 units/mL penicillin, and 100 µg/mL streptomycin. The DU-145 cells were cultured in EMEM that contained 10% FBS, 100 units/mL penicillin, and 100 µg/mL streptomycin. The LNCaP cells were cultured in RPMI 1640 that contained 10% FBS, 100 units/mL penicillin, and 100 µg/mL streptomycin at 37 °C in 5% CO2. SW-13 cells were cultured in Leibovitz’s L-15 medium with 10% FBS at 37 °C without CO2. ZFL cells were cultured in a complete medium that was composed of 50% L-15, 35% DMEM medium, and 15% F12 medium that contained […] sodium bicarbonate, 15 mM HEPES, 0.01 mg/mL bovine insulin, 50 ng/mL mouse EGF, 5% FBS, and 0.5% trout serum at 28 °C without CO2. RTG-2 cells were obtained from Prof. Kristin Schirmer (EAWAG, Switzerland) and cultured in the L-15 medium with 5% FBS, 100 units/mL penicillin, and 100 µg/mL streptomycin at 20 °C without CO2.
(§3) All cells were seeded on a 24-well plate. The seeding densities of the DU-145, LNCaP, and SW-13 cells were 0.5 × 10^5 cells per well. The ZFL and RTG-2 cells were seeded at densities of 1.0 × 10^5 cells and 2.0 × 10^5 cells, respectively. After overnight culture, the culture media was aspirated from each well and treated with testosterone that was diluted in the complete medium for 3 h and 6 h. In the case of transiently transfected HEK-293 cells, the testosterone treatment was applied after transient overexpression under the same conditions as other cell lines. The treated media were collected from each well and centrifuged at 3000× g for 5 min at 4 °C. The supernatants were stored at −80 °C until needed. […] The seeding conditions of all cells were the same as those previously described. After overnight culture, the culture medium was aspirated, and the cells were cotreated with a medium that contained testosterone and inhibitors for 3 h. The medium was collected from each well and centrifuged at 3000× g for 5 min at 4 °C. The supernatants were stored at −80 °C until analysis.
A method that was modified by was used for DHT extraction from the samples. Each sample, which included the calibration, QC, and assay medium, was placed in 1.5 mL PP tubes and spiked with a 0.5 ng/mL DHT-D3 internal standard prior to extraction. All sample tubes were vortexed for 5 s, and the samples were extracted using a liquid-liquid extraction (LLE) method via the addition of 600 µL of MTBE. The samples were vortexed and centrifuged at 4500× g rpm for 5 min, and the organic phase was transferred into glass tubes. The extraction step was repeated once, and the organic phase extracts were dried under a stream of nitrogen. After the samples were dried, 100 µL of the derivatization reagent and 100 µL of TEA were added for DHT derivatization. […]
(§4) The extracts were analyzed for DHT via ultra-performance LC-MS/MS (Agilent 1200/6460C QQQMSD coupled Jet Stream technology electrospray ion (ESI) source; Agilent Technologies, Santa Clara, CA, USA).

The subject of data set [2] is 5AR in ZFL cells. Kind of data set: Cell-based 5AR activity/inhibition assay in zebrafish liver cells (ZFL). How it is done:
as §1, §2, §3
A method that was modified by was used for DHT extraction from the samples. […]
as §4

Data set [3] addresses rat and human 5α-reductase. More on the design: method as in PMID 14753249, PMID 8645628, PMID 7734404, PMID 9605412, PMID 16818707. Conditions: ref [14],[43],[44],[45],[46],[47]; cited from earlier work.
For data set [4], the target named is T1, SRD5A2 (Homo sapiens, UniProt P31213).
T1 sequence (P31213 1-254): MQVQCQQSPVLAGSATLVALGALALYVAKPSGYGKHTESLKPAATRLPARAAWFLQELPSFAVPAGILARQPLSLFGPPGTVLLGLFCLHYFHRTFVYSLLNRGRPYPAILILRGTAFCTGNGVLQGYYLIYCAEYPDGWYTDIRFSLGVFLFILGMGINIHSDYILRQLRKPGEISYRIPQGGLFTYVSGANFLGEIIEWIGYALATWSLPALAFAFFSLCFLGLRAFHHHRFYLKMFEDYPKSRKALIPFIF
The data set can be described thus: Cell-based 5AR activity/inhibition assay in HEK-293 cells transiently overexpressing SRD5A2. Conditions: 95% CI in parentheses. As for the experimental part: (§5) For the calculation of KM, testosterone was added in increments of 0 to 50 µM to non-vector- and SRD5A1-HEK293 cells and in increments of 0 to 10 µM to SRD5A2-HEK293 cells 24 h after transfection. The DHT levels were measured (Figure 4a). […] The IC50 values were calculated (Table 3).
(§6) Transient overexpression was induced using transfection of cDNA with lipofectamine (Thermo Fisher Scientific, Waltham, MA, USA). HEK-293 cells were seeded in 24-well plates at a density of 10^5 cells per well and incubated at 37 °C in an atmosphere of 5% CO2. After overnight culture, 500 ng of cDNA and 0.75 µL of the Lipofectamine 3000 reagent were diluted in the Opti-MEM medium and incubated for 15 min for DNA-lipid complex formation. The DNA-lipid complex was added to the wells and incubated for 6 h. After incubation, the sample-treated medium was changed to the complete culture medium and incubated for 18 h.
(§7) All cells were seeded on a 24-well plate. The seeding densities of the DU-145, LNCaP, and SW-13 cells were 0.5 × 10^5 cells per well. The ZFL and RTG-2 cells were seeded at densities of 1.0 × 10^5 cells and 2.0 × 10^5 cells, respectively. […]
(§8) The extracts were analyzed for DHT via ultra-performance LC-MS/MS (Agilent 1200/6460C QQQMSD coupled Jet Stream technology electrospray ion (ESI) source; Agilent Technologies, Santa Clara, CA, USA). […]

The target in data set [5] is T2, SRD5A1 (Homo sapiens, UniProt P18405).
T2 sequence (P18405 1-259): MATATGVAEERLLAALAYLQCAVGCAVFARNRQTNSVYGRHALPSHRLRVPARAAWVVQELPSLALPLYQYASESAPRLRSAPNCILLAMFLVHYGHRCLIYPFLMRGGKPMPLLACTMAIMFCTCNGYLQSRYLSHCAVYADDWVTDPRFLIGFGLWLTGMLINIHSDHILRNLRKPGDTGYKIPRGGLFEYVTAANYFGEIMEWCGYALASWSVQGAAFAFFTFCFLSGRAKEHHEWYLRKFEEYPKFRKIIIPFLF
Kind of data set: Cell-based 5AR activity/inhibition assay in HEK-293 cells transiently overexpressing SRD5A1. Conditions: IC50 Value, SRD5A1-overexpressing HEK-293 cells; testosterone at KM, 3 h; 95% CI in parentheses. How it is done: as §5, §6, §7, §8

Data set [6] addresses T3, 5AR (SRD5A1) in DU-145 cells (Homo sapiens, UniProt P18405).
T3 sequence (P18405 1-259): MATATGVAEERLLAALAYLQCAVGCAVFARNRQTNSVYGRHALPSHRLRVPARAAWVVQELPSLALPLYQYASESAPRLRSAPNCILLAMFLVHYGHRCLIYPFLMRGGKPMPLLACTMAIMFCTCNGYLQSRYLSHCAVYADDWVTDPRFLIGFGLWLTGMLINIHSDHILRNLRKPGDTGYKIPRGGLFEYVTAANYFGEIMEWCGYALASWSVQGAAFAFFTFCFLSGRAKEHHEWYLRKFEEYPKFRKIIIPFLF
Conditions: DHT formation from testosterone 0 to 10 µM, 95% CI in parentheses.

Substrate in data set [7]: C[C@]12CC[C@H]3[C@@H](CCC4=CC(=O)CC[C@@]43C)[C@@H]1CC[C@@H]2O
Kind of data set: cells, lysate or membranes. The conditions noted are these: 95% CI in parentheses.

Where [8] appears, read: testosterone at KM, 3 h, 95% CI in parentheses, read-out: IC50 Value.
[9] abbreviates: read-out: IC50 Value, testosterone at KM, 3 h, 95% CI in parentheses.
Setting [10] is: testosterone 0 to 50 µM, 95% CI in parentheses.
The mark [11] stands for this setting: other: LNCaP cells, testosterone 0 to 10 µM.
Setting [12] is: other: SRD5A1-HEK293 cells, testosterone 0 to 50 µM, 37.0 °C.
The mark [13] stands for this setting: other: DU-145 cells, testosterone 0 to 10 µM.
The mark [14] stands for this setting: other: SRD5A2-HEK293 cells, testosterone 0 to 10 µM, 37.0 °C.

Values joined by “and” are separate entries in the source; they are usually repeats but may differ in a detail not shown here. Equal values may be shown once. Read-outs that look alike come from different tables or passages of the source.

Consider `CC(C)(C)NC(=O)[C@H]1CC[C@H]2[C@@H]3CC[C@H]4NC(=O)C=C[C@]4(C)[C@H]3CC[C@]12C` [Finasteride, finasteride], for which the IC50 in data set [1] (testosterone at KM, 3 h, 95% CI in parentheses, listed as finasteride, read-out: IC50 Value) worked out at 2460 nM; in data set [1] (setting [8]), 2670 nM; in data set [2] (setting [8]), 142 nM.

As to `C[C@]12C=CC(=O)N[C@@H]1CC[C@@H]1[C@@H]2CC[C@]2(C)[C@@H](C(=O)Nc3cc(C(F)(F)F)ccc3C(F)(F)F)CC[C@@H]12` [Dutasteride, dutasteride], the IC50 in data set [1] (setting [9]) was 13.2 nM; in data set [3], 0.2 to 7 nM; in data set [4] (IC50 Value, SRD5A2-overexpressing HEK-293 cells, testosterone at KM, 3 h), 1.19 nM; in data set [5], 1.27 nM; in data set [2] (setting [9]) it was 7.33 nM.

As to `C[C@]12CC[C@H]3[C@@H](CCC4=CC(=O)CC[C@@]43C)[C@@H]1CC[C@@H]2O` [testosterone], the Km is 1.12 nM in data set [1] (setting [10]) and 0.46 nM in data set [2] (setting [10]). For the same molecule, the Vmax is 13.09 (11.88–14.37) nmol L^−1 h^−1 in data set [1] (setting [10]); 22.52 nmol/L/h in data set [4] (SRD5A2-HEK293 cells, testosterone 0 to 10 µM); 75.55 nmol/L/h in data set [6]; 116.6 nmol L^−1 h^−1 and 116.60 (106.9–126.9) nmol L^−1 h^−1 in data set [2] (setting [10]).

B1: 5AR (SRD5A1) in LNCaP cells (Homo sapiens) (protein)
chain: MATATGVAEERLLAALAYLQCAVGCAVFARNRQTNSVYGRHALPSHRLRVPARAAWVVQELPSLALPLYQYASESAPRLRSAPNCILLAMFLVHYGHRCLIYPFLMRGGKPMPLLACTMAIMFCTCNGYLQSRYLSHCAVYADDWVTDPRFLIGFGLWLTGMLINIHSDHILRNLRKPGDTGYKIPRGGLFEYVTAANYFGEIMEWCGYALASWSVQGAAFAFFTFCFLSGRAKEHHEWYLRKFEEYPKFRKIIIPFLF
As for B1, in data set [7] (setting [11]), the Km is 15.10 (12.35–19.25) nM and the Vmax came to 0.000644 µM/min.

B2: SRD5A1 (Homo sapiens) (protein)
chain: MATATGVAEERLLAALAYLQCAVGCAVFARNRQTNSVYGRHALPSHRLRVPARAAWVVQELPSLALPLYQYASESAPRLRSAPNCILLAMFLVHYGHRCLIYPFLMRGGKPMPLLACTMAIMFCTCNGYLQSRYLSHCAVYADDWVTDPRFLIGFGLWLTGMLINIHSDHILRNLRKPGDTGYKIPRGGLFEYVTAANYFGEIMEWCGYALASWSVQGAAFAFFTFCFLSGRAKEHHEWYLRKFEEYPKFRKIIIPFLF
As to B2, in data set [7] (setting [12]), the Km is 2.29 (1.70–3.09) nM and the Vmax was determined as 0.000143 µM/min.

B3: 5AR (SRD5A1) in DU-145 cells (Homo sapiens) (protein)
chain: MATATGVAEERLLAALAYLQCAVGCAVFARNRQTNSVYGRHALPSHRLRVPARAAWVVQELPSLALPLYQYASESAPRLRSAPNCILLAMFLVHYGHRCLIYPFLMRGGKPMPLLACTMAIMFCTCNGYLQSRYLSHCAVYADDWVTDPRFLIGFGLWLTGMLINIHSDHILRNLRKPGDTGYKIPRGGLFEYVTAANYFGEIMEWCGYALASWSVQGAAFAFFTFCFLSGRAKEHHEWYLRKFEEYPKFRKIIIPFLF
Regarding B3, in data set [7] (setting [13]), the Km is recorded as 9.15 (7.01–12.81) nM and the Vmax amounted to 0.00126 µM/min.

B4: SRD5A2 (Homo sapiens) (protein)
chain: MQVQCQQSPVLAGSATLVALGALALYVAKPSGYGKHTESLKPAATRLPARAAWFLQELPSFAVPAGILARQPLSLFGPPGTVLLGLFCLHYFHRTFVYSLLNRGRPYPAILILRGTAFCTGNGVLQGYYLIYCAEYPDGWYTDIRFSLGVFLFILGMGINIHSDYILRQLRKPGEISYRIPQGGLFTYVSGANFLGEIIEWIGYALATWSLPALAFAFFSLCFLGLRAFHHHRFYLKMFEDYPKSRKALIPFIF
Take B4: in data set [7] (setting [14]), the Km was 0.36 (0.18–0.65) nM and the Vmax was 0.000375 µM/min.
